Test results reported in publication PMC4232510, “Identification of Functionally Important Residues of the Rat P2X4 Receptor by Alanine Scanning Mutagenesis of the Dorsal Fin and Left Flipper Domains” (PLoS ONE, 2014).
Substitutions are numbered along the chain they refer to.

Experiments:
[1] = target: T1, rP2X4R D283A mutant (Rattus norvegicus, UniProt P51577, D283A); test: whole-cell patch clamp, HEK293T cells expressing mutant; assay type: cell-based
T1 construct: expressed in transfected cells; host or cells: HEK293T
T1 sequence (P51577 1-388 D283A): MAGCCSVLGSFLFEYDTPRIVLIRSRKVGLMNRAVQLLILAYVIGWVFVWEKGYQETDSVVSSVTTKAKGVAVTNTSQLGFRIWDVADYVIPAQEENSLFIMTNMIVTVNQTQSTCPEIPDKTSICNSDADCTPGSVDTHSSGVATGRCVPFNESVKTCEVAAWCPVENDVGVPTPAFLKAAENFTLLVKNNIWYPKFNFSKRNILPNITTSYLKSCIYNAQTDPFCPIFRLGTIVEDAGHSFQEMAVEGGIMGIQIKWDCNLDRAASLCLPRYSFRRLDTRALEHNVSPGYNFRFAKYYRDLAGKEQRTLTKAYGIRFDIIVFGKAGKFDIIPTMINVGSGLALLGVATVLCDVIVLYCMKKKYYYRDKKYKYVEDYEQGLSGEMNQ

[2] = target: T2, rP2X4R S289A mutant (Rattus norvegicus, UniProt P51577, S289A); test: as above; assay type: cell-based
T2 construct: expressed in transfected cells; host or cells: HEK293T
T2 sequence (P51577 1-388 S289A): T1 sequence (P51577 1-388 D283A) with A283D, S289A

[3] = 100 µM ATP 60 s, biexponential fit
[4] = contribution of τdes2, 100 µM ATP 60 s
[5] = decay after removal of 1 or 3 µM ATP, 3 µM IVM
[6] = naïve receptors, 2–5 s application
[7] = 3 µM IVM 4-6 min vs IVM-untreated

Row | Structure (SMILES) | τdes1 [1, 3] | τdes2 [1, 3] | Imax ([1]; 100–1000 µM ATP) | Imax+IVM ([1]; ATP after 3 µM IVM 4-6 min) | A2 /(A1+A2) [1, 4] | τoff +IVM [1, 5] | EC50 [1, 6] | τdes ([1]; weighted, 100 µM ATP 60 s) | τdes1 [2, 3] | τdes2 [2, 3] | Imax ([2]; 100–1000 µM ATP) | Imax+IVM ([2]; ATP after 3 µM IVM 4-6 min) | A2 /(A1+A2) [2, 4] | τoff +IVM [2, 5] | EC50 [2, 6] | τdes ([2]; weighted, 100 µM ATP 60 s) | Fold incr. Imax [1, 7] | Fold incr. Imax [2, 7]
1 | Nc1ncnc2c1ncn2[C@@H]1O[C@H](COP(=O)(O)OP(=O)(O)OP(=O)(O)O)[C@@H](O)[C@H]1O [ATP] | 2.2 ± 0.6 s | 17.1 ± 5.8 s | 2.2 ± 0.3 nA | 3.1 ± 0.3 nA | 59 ± 10% | 16 ± 1.7 s | 7.3 ± 3.4 µM | 9.1 ± 1.5 s | 0.9 ± 0.3 s | 11.3 ± 0.6 s | 1.4 ± 0.2 nA | 4.5 ± 1.1 nA | 56 ± 7% | 15 ± 1.1 s | 3.6 ± 1.9 µM | 6.8 ± 1.0 s | – | –
2 | CC[C@H](C)[C@H]1O[C@]2(CC[C@@H]1C)C[C@@H]1C[C@@H](C/C=C(\C)[C@@H](O[C@H]3C[C@H](OC)[C@@H](O[C@H]4C[C@H](OC)[C@@H](O)[C@H](C)O4)[C@H](C)O3)[C@@H](C)/C=C/C=C3\CO[C@@H]4[C@H](O)C(C)=C[C@@H](C(=O)O1)[C@]34O)O2 [IVM, ivermectin] | – | – | – | – | – | – | – | – | – | – | – | – | – | – | – | – | 1.4 ± 0.1 fold | 3.2 ± 0.2 fold
